Results published in the supplement of paper PMC10307832.

What was measured:
Experiment in all cases: relative viability (nuclei count vs DMSO), 5 days (fraction); higher = more cells survive
[1] = compound: CCn1c(-c2nonc2N)nc2cnc(Oc3cccc(NC(=O)c4ccc(OCCN5CCOCC5)cc4)c3)cc21 + O=C(c1cc(Cc2n[nH]c(=O)c3ccccc23)ccc1F)N1CCN(C(=O)C2CC2)CC1 [Olaparib] (partner 8 µM)
Summary of the method: (§1)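 Relative viability equals treated-well nuclei counts divided by vehicle-well nuclei counts. Counts came from 4× images of lung cancer cell lines grown in 1536-well plates for 5 days after pin-tool dosing on the day after seeding. Dosing used one drug alone or a fixed anchor-drug dose plus five library-drug doses (not always all listed) in √10 steps, and values are medians of duplicate plates.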

Mirin + Decitabine = compound: N=C1NC(=O)/C(=C/c2ccc(O)cc2)S1 [Mirin] + Nc1ncn([C@H]2C[C@H](O)[C@@H](CO)O2)c(=O)n1 [Decitabine] (partner 2 µM)
Summary of the method: as §1

Mirin + Lapatinib = compound: N=C1NC(=O)/C(=C/c2ccc(O)cc2)S1 [Mirin] + CS(=O)(=O)CCNCc1ccc(-c2ccc3ncnc(Nc4ccc(OCc5cccc(F)c5)c(Cl)c4)c3c2)o1 [Lapatinib] (partner 2 µM)
Summary of the method: as §1

[2] = compound: CCn1c(-c2nonc2N)nc2cnc(Oc3cccc(NC(=O)c4ccc(OCCN5CCOCC5)cc4)c3)cc21 + CCNC(=O)c1noc(-c2cc(C(C)C)c(O)cc2O)c1-c1ccc(CN2CCOCC2)cc1 [Luminespib] (partner 0.01 µM)
Summary of the method: as §1

Row | Cell Line | relative viability ([1]; first compound 0.04 µM) | relative viability ([1]; first compound 0.1265 µM) | relative viability ([1]; first compound 0.4 µM) | relative viability ([1]; first compound 1.265 µM) | relative viability ([1]; first compound 4 µM) | relative viability (Mirin + Decitabine; first compound 0.25 µM) | relative viability (Mirin + Decitabine; first compound 0.7906 µM) | relative viability (Mirin + Decitabine; first compound 2.5 µM) | relative viability (Mirin + Decitabine; first compound 7.906 µM) | relative viability (Mirin + Decitabine; first compound 25 µM) | relative viability (Mirin + Lapatinib; first compound 0.25 µM) | relative viability (Mirin + Lapatinib; first compound 0.7906 µM) | relative viability (Mirin + Lapatinib; first compound 2.5 µM) | relative viability (Mirin + Lapatinib; first compound 7.906 µM) | relative viability (Mirin + Lapatinib; first compound 25 µM) | relative viability ([2]; first compound 0.04 µM) | relative viability ([2]; first compound 0.1265 µM) | relative viability ([2]; first compound 0.4 µM) | relative viability ([2]; first compound 1.265 µM) | relative viability ([2]; first compound 4 µM)
1 | NCI-H1734 | 0.654 | 0.583 | 0.557 | 0.442 | 0.328 | 0.479 | 0.493 | 0.565 | 0.491 | 0.419 | 1.02 | 0.906 | 1.06 | 0.941 | 0.905 | 0.165 | 0.21 | 0.192 | 0.15 | 0.166
2 | NCI-H1755 | 0.89 | 0.891 | 0.864 | 0.851 | 0.833 | 0.725 | 0.775 | 0.703 | 0.717 | 0.752 | 1.03 | 0.951 | 1.05 | 1.11 | 1.18 | 0.345 | 0.713 | 0.275 | 0.299 | 0.388
3 | NCI-H1792 | 0.449 | 0.345 | 0.338 | 0.244 | 0.37 | 0.5 | 0.504 | 0.665 | 0.516 | 0.573 | 0.891 | 0.814 | 0.97 | 0.829 | 0.942 | 0.477 | 0.21 | 0.47 | 0.299 | 0.308
4 | NCI-H1793 | 0.824 | 0.994 | 0.756 | 0.52 | 0.363 | 0.472 |  | 0.434 | 0.52 | 0.48 | 0.899 | 0.413 | 0.914 | 0.881 | 0.652 | 0.217 | 0.22 | 0.159 | 0.18 | 0.237
5 | NCI-H1915 | 0.252 | 0.265 | 0.251 | 0.185 | 0.167 | 0.275 | 0.252 | 0.278 | 0.255 | 0.255 | 0.95 |  | 0.997 | 0.853 | 0.826 | 0.905 | 0.831 | 0.949 | 0.775 | 0.716
6 | NCI-H1944 | 0.42 | 0.419 | 0.358 | 0.386 | 0.327 | 0.426 | 0.471 | 0.489 | 0.425 | 0.436 | 0.904 |  | 0.774 | 0.747 | 0.486 | 0.575 | 0.728 | 0.765 | 0.675 | 0.56
7 | NCI-H1975 | 0.9 | 0.772 | 0.623 | 0.389 | 0.271 | 0.427 | 0.329 | 0.402 | 0.36 | 0.401 | 1.12 | 0.785 | 0.883 | 1.02 | 0.757 | 0.229 | 0.136 | 0.199 | 0.139 | 0.125
8 | NCI-H1993 | 1.06 | 1 | 1.06 | 1.13 | 0.849 | 0.656 | 0.46 | 0.663 | 0.525 | 0.551 | 0.856 | 0.784 | 0.887 | 0.976 | 0.81 | 0.891 | 0.768 | 1.02 | 0.692 | 0.664
9 | NCI-H2009 | 0.605 | 0.566 | 0.549 | 0.486 | 0.334 | 0.354 | 0.373 | 0.425 | 0.361 | 0.405 | 0.883 | 0.469 | 1.02 | 0.847 | 0.993 | 1 | 0.804 | 0.822 | 0.599 | 0.394
10 | NCI-H2023 | 0.472 | 0.438 | 0.408 | 0.264 | 0.245 | 0.237 | 0.238 | 0.216 | 0.228 | 0.225 | 1.08 | 0.301 | 0.752 | 0.876 | 0.585 | 0.794 | 0.72 | 0.67 | 0.381 | 0.332
11 | NCI-H2085 | 0.832 | 0.693 | 0.632 | 0.573 | 0.559 | 0.562 | 0.537 | 0.546 | 0.553 | 0.604 | 0.828 | 0.791 | 0.823 | 0.807 | 0.628 | 0.535 | 0.395 | 0.373 | 0.365 | 0.377
12 | NCI-H2087 | 0.802 | 0.539 | 0.559 | 0.483 | 0.586 | 0.245 | 0.215 | 0.286 | 0.24 | 0.208 | 1.09 | 1.07 | 0.91 | 1.12 | 1.14 | 0.161 | 0.143 | 0.181 | 0.153 | 0.143
13 | NCI-H2126 | 1.09 | 0.966 | 0.907 | 0.889 | 0.854 | 0.556 | 0.534 | 0.586 | 0.557 | 0.461 | 0.77 | 0.735 | 0.765 | 0.717 | 0.621 | 1.06 | 0.903 | 0.776 |  | 0.635
14 | NCI-H2170 | 0.629 | 0.661 | 0.629 | 0.549 | 0.415 | 0.462 | 0.483 | 0.45 | 0.415 | 0.411 | 0.273 | 0.223 | 0.278 | 0.324 | 0.274 | 0.344 | 0.453 | 0.926 | 0.478 | 0.474
15 | NCI-H2347 | 0.549 | 0.587 | 0.824 | 0.383 | 0.448 | 0.595 | 0.599 | 0.604 | 0.604 | 0.611 | 0.915 | 0.944 | 0.981 | 0.956 | 0.966 | 0.399 | 0.451 | 0.599 | 0.283 | 0.302
16 | NCI-H2405 | 0.883 | 0.57 | 0.341 | 0.258 | 0.287 | 0.72 |  | 0.691 | 0.725 | 0.708 | 1.11 | 1.12 | 1.02 | 1.05 | 1.22 | 0.735 | 0.49 | 0.219 | 0.217 | 0.214
